According to patent US9957253B2, “Triaminopyrimidine compounds useful for preventing or treating malaria” (MMV MEDICINES FOR MALARIA VENTURE, priority 2014, dated 2018):

Tests used:
[1] = Blood:Plasma (BP) ratio, dog; type: in vitro ADME; settings: 10 μM, 37° C., 30 min
Description: Determination of Blood:Plasma (BP) Ratio
The incubation plate and the dog blood/plasma was preheated at 37° C. for 10 minutes. 2 μL of working solution of each compound was added to 398 μL of dog reference plasma or blood to achieve a final concentration of 10 μM. Plates were incubated at 37° C. with shaking for 30 min. After incubation, the blood samples are spun for 10 min. at 4,000 rpm (37° C.) and the plasma samples were stored at 37° C. Aliquots (100 μL) of plasma separated from centrifuged whole blood samples and reference plasma samples were transferred into 96-well plates. 400 μL of cold acetonitrile was added to precipitate protein and release compound. After vortexing for 10 min., plates were centrifuged for 30 min. at 4,000 rpm. 250 μL of the supernatant was transferred to new 96-well plates and centrifuged again at 4,000 rpm for 30 min. 100 μL of the supernatant was used for analysis by LC-MS/MS.

[2] = Plasma protein binding assay (equilibrium dialysis), dog; type: in vitro ADME
Description: Plasma Protein Binding Assay
Protein binding is measured using the equilibrium dialysis technique. Compound is added to 10% plasma giving a concentration of 20 μM and dialysed with isotonic buffer for 18 hours at 37° C. The plasma and buffer solutions are analysed using generic LCUVMS and the first apparent binding constant for the compound derived. The binding constant is then used to determine the % free in 100% plasma.

[3] = Prediction of hepatic blood clearance (well stirred model), dog
[4] = Pharmacokinetic studies (IVPK/POPK) in male Beagle dogs; type: in vivo; settings: Dog
Description: All in vivo studies were approved by the institutional animal ethics committee. Pharmacokinetics following IV bolus (IVPK) or oral administration (POPK) of compounds was determined in male Wistar rats or male Beagle dogs. For IVPK in rats, Example 7 and Example 10 were administered as solutions in 20% DMA, 80% phosphate-buffered saline and Example 13 was administered as a solution in 10% v/v NMP, 20% v/v DMA in saline. For POPK, Example 7 and Example 10 were administered as suspensions in 20% DMA, 80% phosphate buffered saline and Example 13 was administered as a suspension in 0.5% HPMC and 0.1% Tween 80 through an oral gavage. Example 13 was administered to dogs as a solution in 10% Ethanol, 30% PEG 400, 60% saline for IVPK and as a suspension in 0.5% HPMC, and 0.1% Tween 80 for POPK. Doses used for rat and dog PK were 0.5 mg/kg for Examples 7 and 10 or 2 mg/kg for Example 13 (IVPK). Doses of 5 mg/kg for Examples 7 and 10 were used during POPK. Doses of 10 mg/kg were used for Example 13 during POPK studies. Blood samples were collected at 8 to 13 time points (0, 0.0833, 0.25, 0.283, 0.333, 0.417, 0.75, 1.25, 3.25, 6.25, 12.25, 24.25 h for dog IVPK; 0, 0.25, 0.5, 1, 1.5, 2, 3, 4, 8, 12, 24, 32, 48 h for dog POPK; 0.083, 0.25, 0.5, 1, 2, 4, 7, 24 h for rat IVPK; 0.25, 1, 3, 6, 12, 24, 36, 48 h for rat POPK) after dosing. Blood (rat) or plasma (dog) samples were analysed by LC-MS/MS. PK parameters were estimated by non-compartmental analysis in Phoenix®.

parasite = assay: In vitro parasite reduction ratio (PRR) assay; type: cell-based; settings: after 48 hours of exposure
Description: When tested in an in vitro parasite reduction ratio (PRR) assay (Le Manach, et al., 2013, Malar J., […], 424-430), Example 13 produced a >4-log kill after 48 hours of exposure, an effect similar to chloroquine in the same assay.

Pf parasites = assay: Pf/SCID model efficacy; type: in vivo, P. falciparum; settings: oral
Description: Blood Cmin (0.04 μM) observed at this dose was considered the minimum parasiticidal concentration (MPC) for the human dose prediction.

[5] = Conversion of Example 13 to the active metabolite in liver microsomes, species comparison; type: in vitro ADME, mouse, rat, human; settings: rank order of species
Description: (§1) Metabolites of Example 13 were identified both in vitro and in vivo using the following models: • In vitro: The compound of Example 13 was incubated with human (HLM) or rat (RLM) liver microsomes (1 mg/ml protein concentration in 100 mM phosphate buffer, pH 7.4) at a final concentration of 10 μM in the presence of 2 mM NADPH. The reactive intermediates were trapped by including 2 mM glutathione (GSH) or N-acetyl cysteine (NAC) in the reaction mix. • In vivo in bile duct cannulated rats: Example 13 was administered intravenously (IV) as a bolus through the jugular vein at a dose of 2 mg/kg or 4 mg/kg of body weight for control (n=3) or BDC rats (n=2), respectively. Blood samples were collected at 0.083, 0.25, 0.5, 1, 2, 4, 6, 8 and 24 h through the carotid artery, bile samples were collected at 0-2 h, 2-4 h, 4-6 h, 6-8 h and 8-24 h intervals and urine samples were collected at 0-8 h and 8-24 h intervals. The bile and urine samples were analyzed for the presence of parent and metabolites and blood samples were analyzed for the presence of parent.
These studies supported the fact that the compound of Example 2 is an active metabolite of the compound of Example 13 and is formed both in vitro and in vivo.

[6] = Reactive intermediate trapping with GSH or NAC in liver microsomes; type: in vitro ADME, human, rat; settings: 10 μM, 2 mM GSH or NAC
Description: as §1

| SMILES | BP ratio [1] | Fup [2] | Predicted CLh blood [3] [mL/min/kg] | Oral ‘F’ ([4]; oral 10 mg/kg) [%] | ½ life (PO PK) ([4]; oral 10 mg/kg) [h] | clearance ([4]; male, Beagle, blood, IV bolus 2 mg/kg, read-out: CL blood) [mL/min/kg] | Vd ([4]; male, Beagle, blood, IV bolus 2 mg/kg, read-out: Vss blood) [L/kg] | log kill in parasite reduction ratio (PRR) assay (parasite) [log] | Dose at which maximum kill rate was observed (Pf parasites) [mg/kg] | Percent conversion to the active metabolite (Example 2) [5] | GSH or NAC adduct (reactive metabolite) formation [6] |
| --- | --- | --- | --- | --- | --- | --- | --- | --- | --- | --- | --- |
| Cc1nc(Nc2ncc(N3CCN(C)[C@H](C)C3)c(Nc3cc(C)n(C)n3)n2)cc(C2CC2)c1F [Example 13, (R)—N2-(4-cyclopropyl-5-fluoro-6-methylpyridin-2-yl)-N4-(1,5-dimethyl-1H-pyrazol-3-yl)-5-(3,4-dimethylpiperazin-1-yl)pyrimidine-2,4-diamine] | 1.35 | 0.04 | 20.80 | 82 | 9 | 19 | 16 | > 4 | 40 | highest in mouse, followed by rat and then human liver microsomes | no GSH or NAC adduct formation |
| Cc1nc(Nc2ncc(N3CCN[C@H](C)C3)c(Nc3cnn(C)n3)n2)cc(C2CC2)c1Cl [Example 10, (R)—N2-(5-chloro-4-cyclopropyl-6-methylpyridin-2-yl)-N4-(2-methyl-2H-1,2,3-triazol-4-yl)-5-(3-methylpiperazin-1-yl)pyrimidine-2,4-diamine dihydochloride] | 1.7 | 0.04 | 12.70 |  |  |  |  |  |  |  |  |
